According to PMC8036727, “In Vitro Anticancer Potential of Jasione montana and Its Main Components against Human Amelanotic Melanoma Cells” (International Journal of Molecular Sciences, 2021):
Converted amounts (≈) assume the structure as drawn. Structures can show the parent of a compound that is named as a salt.

What was measured:
[1] = system: human amelanotic melanoma cell line C32 (CRL-1585); assay: Fixable viability stain (FVS520) cytotoxicity assay, flow cytometry; type: cell-based; conditions: C32 cells, 24 h, 10–300 μg/mL, mean ± SD
Procedure: (§1) The human amelanotic melanoma cell line C32 (CRL-1585) and a normal human fibroblast cell line (PCS-201-012) were cultured in DMEM. DMEM was blended with 10% FBS, 10 µg/mL streptomycin, and […] penicillin. The cells were cultured in 5% CO2 and fully humidified at 37 °C. All tested compounds were used at a final DMSO concentration of not more than 0.5% (v/v). Cells cultured in drug-free DMEM were used as controls, and cells with the addition of only DMSO were used as solvent-controls; VLB was used as a positive control. The JM4 fraction was analyzed at the following concentrations: 25, 50 and 100 µg/mL and compound 22 and VLB were analyzed at 25 µg/mL. For the cytotoxicity assay, all extracts and compounds were tested at the following concentrations: 10, 25, 50, 100, 200, and 300 µg/mL.
This analysis was performed to estimate the level of viable cells after treatment with JM1–JM6, compounds 9, 12, 22 and VLB at concentrations ranging from 10 to 300 µg/mL. Cytotoxicity was evaluated by FVS520 via a flow cytometer (BD FACSCanto II flow cytometer, San Jose, CA, USA). In contrast to nonpermeable live cells, the permeable membranes of necrotic cells allow for the intracellular diffusion of FVS520 and the covalent binding of high concentrations of amines. Thus, necrotic cells contained a higher level of FVS520 and, consequently, increased fluorescence intensity than viable cells. After 24 h of incubation, C32 cells and fibroblasts were washed with PBS, trypsinized and resuspended in DMEM. The supernatant was removed, and 0.5 mL of Stain Buffer with the addition of 1 µL of FVS520 was added to each sample, which was vortexed immediately and kept for 10–15 min in the dark at room temperature. After incubation and the addition of 2 mL of PBS, the supernatant was removed, the cells were resuspended in 300 µL of PBS and then immediately subjected to analysis. The results were analyzed based on FACSDiva software (BD Biosciences Systems, San Jose, CA, USA). Based on the results of the cytotoxicity analysis, further research in this project focused on the determination of the full anticancer mechanism of the most promising fraction JM4 and compound 22.

[2] = system: C32 melanoma cells; assay: Mitochondrial membrane potential (MMP), JC-1 MitoScreen, flow cytometry; type: cell-based, human; conditions: 25 μg/mL, 24 h; untreated control 5.2 ± 0.1%
Procedure: The human amelanotic melanoma cell line C32 (CRL-1585) and a normal human fibroblast cell line (PCS-201-012) were cultured in DMEM. […] Cells cultured in drug-free DMEM were used as controls, and cells with the addition of only DMSO were used as solvent-controls; VLB was used as a positive control. The JM4 fraction was analyzed at the following concentrations: 25, 50 and 100 µg/mL and compound 22 and VLB were analyzed at 25 µg/mL. For the cytotoxicity assay, all extracts and compounds were tested at the following concentrations: 10, 25, 50, 100, 200, and 300 µg/mL. […] After incubation, the cells were flushed again, resuspended in PBS, and immediately subjected to BD FACSCanto II flow cytometry analysis. The results were analyzed using FACSDiva.

[3] = system: C32 melanoma cells; assay: Cell cycle analysis by PI staining, flow cytometry; type: cell-based, human; conditions: 25 μg/mL, 24 h
Procedure: The human amelanotic melanoma cell line C32 (CRL-1585) and a normal human fibroblast cell line (PCS-201-012) were cultured in DMEM. […] Cells cultured in drug-free DMEM were used as controls, and cells with the addition of only DMSO were used as solvent-controls; VLB was used as a positive control. The JM4 fraction was analyzed at the following concentrations: 25, 50 and 100 µg/mL and compound 22 and VLB were analyzed at 25 µg/mL. For the cytotoxicity assay, all extracts and compounds were tested at the following concentrations: 10, 25, 50, 100, 200, and 300 µg/mL. The allocation of cell cycle stage was analyzed on a FACSCanto II flow cytometer. C32 cells were cured with JM4, 22 and VLB for 24 h of incubation. Thereafter, the cells were harvested and adjusted with 1 mL of 70% EtOH and maintained at −20 °C for 24 h. Next, the cells were washed with PBS, treated with 50 µg/mL DNase-free RNase A solution for 5 min at room temperature, stained with 100 µg/mL PI for 30 min at 37 °C, and submitted to flow cytometry analysis. The results were analyzed with FACSDiva software.

[4] = system: caspase-10 in C32 melanoma cells; assay: FLICA Caspase-10 assay, flow cytometry; type: cell-based, human; conditions: 25 μg/mL, 24 h
Procedure: (§2) The human amelanotic melanoma cell line C32 (CRL-1585) and a normal human fibroblast cell line (PCS-201-012) were cultured in DMEM. […] Cells cultured in drug-free DMEM were used as controls, and cells with the addition of only DMSO were used as solvent-controls; VLB was used as a positive control. The JM4 fraction was analyzed at the following concentrations: 25, 50 and 100 µg/mL and compound 22 and VLB were analyzed at 25 µg/mL. For the cytotoxicity assay, all extracts and compounds were tested at the following concentrations: 10, 25, 50, 100, 200, and 300 µg/mL. Determination of the caspase-3, caspase-8, caspase-9, and caspase-10 activity were carried out by the following kits: FLICA Caspase-3/7 Assay Kit, FLICA Caspase-8 Assay Kit, FLICA Caspase-9 Assay Kit, and FLICA Caspase-10 Assay Kit using a BD FACSCanto II flow cytometer. […] After 1 h, the cells were flushed with apoptosis wash buffer and resuspended in […] of the same reagent with […] PI. The procedure of determining the activity of each caspase was carried out analogously. The results were analyzed with FACSDiva software.

[5] = system: caspase-8 in C32 melanoma cells; assay: FLICA Caspase-8 assay, flow cytometry; type: cell-based, human; conditions: 25 μg/mL, 24 h
Procedure: as §2

[6] = system: normal human fibroblast cell line (PCS-201-012); assay: Fixable viability stain (FVS520) cytotoxicity assay, flow cytometry; type: cell-based; conditions: normal human fibroblasts, 24 h, 10–300 μg/mL
Procedure: The human amelanotic melanoma cell line C32 (CRL-1585) and a normal human fibroblast cell line (PCS-201-012) were cultured in DMEM. […] Cells cultured in drug-free DMEM were used as controls, and cells with the addition of only DMSO were used as solvent-controls; VLB was used as a positive control. The JM4 fraction was analyzed at the following concentrations: 25, 50 and 100 µg/mL and compound 22 and VLB were analyzed at 25 µg/mL. For the cytotoxicity assay, all extracts and compounds were tested at the following concentrations: 10, 25, 50, 100, 200, and 300 µg/mL. […] Cytotoxicity was evaluated by FVS520 via a flow cytometer (BD FACSCanto II flow cytometer, San Jose, CA, USA). In contrast to nonpermeable live cells, the permeable membranes of necrotic cells allow for the intracellular diffusion of FVS520 and the covalent binding of high concentrations of amines. Thus, necrotic cells contained a higher level of FVS520 and, consequently, increased fluorescence intensity than viable cells. After 24 h of incubation, C32 cells and fibroblasts were washed with PBS, trypsinized and resuspended in DMEM. […] After incubation and the addition of 2 mL of PBS, the supernatant was removed, the cells were resuspended in 300 µL of PBS and then immediately subjected to analysis. The results were analyzed based on FACSDiva software (BD Biosciences Systems, San Jose, CA, USA). […]

[7] = system: caspase-9 in C32 melanoma cells; assay: FLICA Caspase-9 assay, flow cytometry; type: cell-based, human; conditions: 25 μg/mL, 24 h
Procedure: as §2

[8] = system: C32 melanoma cells; assay: Annexin V-FITC/PI binding apoptosis assay, flow cytometry; type: cell-based, human; conditions: 25 μg/mL, 24 h; for apoptotic cells: untreated control 7.3 ± 1.3%
Procedure: During programmed cell death, annexin V has a high affinity for phosphatidylserine (PS) when it is exposed to the extracellular environment. […] The assay allows differentiability between viable cells (annexin V–/PI–) and early (annexin V–/PI+) and late (annexin V+/PI+) apoptotic cells, as well as necrotic cells (annexin V–/PI+).
The human amelanotic melanoma cell line C32 (CRL-1585) and a normal human fibroblast cell line (PCS-201-012) were cultured in DMEM. DMEM was blended with 10% FBS, 10 µg/mL streptomycin, and 10 units/mol penicillin. The cells were cultured in 5% CO2 and fully humidified at 37 °C. All tested compounds were used at a final DMSO concentration of not more than 0.5% (v/v). Cells cultured in drug-free DMEM were used as controls, and cells with the addition of only DMSO were used as solvent-controls; VLB was used as a positive control.
Characterization of the mode of apoptosis induced by JM4, 22 and VLB was performed in C32 cells via flow cytometry using a FITC Annexin V Apoptosis Detection Kit II. All stages of programmed cell death could be identified by annexin V bound with high affinity to PS. PI is a standard flow cytometric viability explorer that stains cells that interfere with the cell membrane, and it can be used to distinguish necrotic cells from dead cells. After the C32 cells were incubated for 24 h with various concentrations of JM4, 22 and VLB, they were trypsinized and resuspended in binding buffer. After that, 5 µL of annexin V-FITC and 5 µL of PI were added and maintained for 15 min in the dark at room temperature. The results were analyzed using FACSDiva software.

[9] = system: caspase-3 in C32 melanoma cells; assay: FLICA Caspase-3/7 assay, flow cytometry; type: cell-based, human; conditions: 25 μg/mL, 24 h; untreated control 4.2 ± 1.3%
Procedure: as §1
Determination of the caspase-3, caspase-8, caspase-9, and caspase-10 activity were carried out by the following kits: FLICA Caspase-3/7 Assay Kit, FLICA Caspase-8 Assay Kit, FLICA Caspase-9 Assay Kit, and FLICA Caspase-10 Assay Kit using a BD FACSCanto II flow cytometer. C32 cells were incubated with JM4, compound 22 and VLB for 24 h, washed twice with PBS, resuspended in buffer supplemented with […] of FLICA reagent, and incubated. […] The results were analyzed with FACSDiva software.

[10] = system: C32 melanoma cells; assay: Autophagy Assay, Red, flow cytometry; type: cell-based, human; conditions: 25 μg/mL, 24 h
Procedure: as §1
An autophagy assay was carried out to detect the impact of JM4, compound 22, and VLB on the autophagy process of C32 cells via flow cytometry using an Autophagy Assay, Red kit. The probe is a cell-permeable aliphatic molecule that brightly fluoresces after unjumbling […] and autolysosomes into lipid membranes. […] The results were analyzed with FACSDiva software.

Structure (SMILES): O=c1cc(-c2ccc(O)c(O)c2)oc2cc(OC3OC(CO)C(O)C(O)C3OC3OCC(O)C(O)C3O)cc(O)c12 [Compound 9, luteolin 7-O-β-D-xylosyl-(1-2)-β-D-glucoside]
- IC50 [1]: > 300 µg/mL

Structure (SMILES): O=c1cc(-c2ccc(O)c(O)c2)oc2cc(OC3OC(CO)C(O)C(O)C3O)cc(O)c12 [Compound 12, luteolin 7-O-β-D-glucoside]
- IC50 [1]: > 300 µg/mL

Structure (SMILES): O=c1cc(-c2ccc(O)c(O)c2)oc2cc(O)cc(O)c12 [Compound 22, luteolin]
- cells with a reduced MMP [2]: 31.8 ± 0.7%
- percentage of C32 cells in G2/M phase ([3]; untreated control 6.1 ± 0.6%): 14.6 ± 1.5%
- percentage of C32 cells in G1 phase ([3]; untreated control 73.0 ± 0.9%): 35.3 ± 3.0%
- cells with active caspase-10 [4]: 15.4 ± 0.7%
- cells with active caspase-8 [5]: 20.2 ± 1.5%
- IC50 [6]: 194 ± 4.4 µg/mL (≈ 678 µM)
- IC50 [1]: 95.1 ± 7.2 µg/mL (≈ 332 µM)
- cells with active caspase-9 [7]: 16.6 ± 0.8%
- apoptotic cells [8]: 29.2 ± 3.0%

Structure (SMILES): CC[C@]1(O)C[C@@H]2CN(CCc3c([nH]c4ccccc34)[C@@](C(=O)OC)(c3cc4c(cc3OC)N(C)[C@H]3[C@@](O)(C(=O)OC)[C@H](OC(C)=O)[C@]5(CC)C=CCN6CC[C@]43[C@@H]65)C2)C1 [VLB, vinblastine sulfate]
- cells with active caspase-3 [9]: 23.4 ± 3.5%
- cells with a reduced MMP [2]: 34.1 ± 3.0%
- autophagic cells ([10]; untreated control 4.8 ± 0.8%): 76.7 ± 0.5%
- nonautophagic cells ([10]; untreated control 94.5 ± 1.0%): 22.4 ± 0.6%
- IC50 [1]: 148 ± 7.7 µg/mL
- necrotic cells [8]: 4.2 ± 1.0%
- apoptotic cells [8]: 27.4 ± 1.0%
